Our source for the IC50 values is US11351151B2, “Compound having anticancer activity and preparation method and application” (3D Medicines (Beijing) Co., Ltd., priority 2016, dated 2022).

Assay in all cases: Cell proliferation assay (Alamar Blue)
Format in all cases: cell-based
On the technique in general: Resazurin is reduced to fluorescent resorufin, in cell work by metabolically active cells.

In one assay the test system is SNU398. The conditions noted are these: Homo sapiens, SNU-398, 144 h; SNU398 liver cancer cell line; 6 days. The method, boiled down:
(§1)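 Cells seeded at 500–1×10^4/well, allowed 4 h at 37 °C, 5% CO2, then given 9-point compound series (3.16-fold from 30 or 100 μM top). After 6 days, AlamarBlue added 1–4 h and fluorescence read (ex 560/em 590 nm); IC50 from four-parameter nonlinear regression of inhibition versus 0% and 100% controls.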

Another assay relates to 22RV1. Conditions: Homo sapiens, 144 h; 22RV1 tumor cell line; 6 days. An outline of the steps:
as §1

The next assay relates to NCl-H526. Conditions: 144 h; NCl-H526 tumor cell line; 6 days. An outline of the steps: as §1
In another assay the test system is KASUMI-1. Conditions: Homo sapiens, 144 h; KASUMI-1 (leukemia cells); 6 days. The method, boiled down:
as §1

For the next assay, the system named is NCl-H661. Conditions: 144 h; NCl-H661 tumor cell line; 6 days. An outline of the steps: as §1
The subject of the next assay is HT55. Conditions: Homo sapiens, 144 h; HT55 tumor cell line; 6 days. The method, boiled down:
as §1

A further assay has as its system JHH6. The conditions noted are these: 144 h; JHH6 liver cancer cell line; 6 days. The method, boiled down: as §1
The test system of a further assay is SNU182. The conditions noted are these: Homo sapiens, SNU-182, 144 h; SNU182 liver cancer cell line; 6 days. An outline of the steps: as §1
A further assay has as its system HCCLM3. The conditions noted are these: Homo sapiens, 144 h; HCCLM3 tumor cell line; 6 days. An outline of the steps:
as §1

The subject of a further assay is HT1080. Conditions: Homo sapiens, HT-1080, 144 h; HT1080 tumor cell line; 6 days. The method, boiled down: as §1
For another assay, the system named is HLF. The conditions noted are these: 144 h; HLF liver cancer cell line; 6 days. The method, boiled down: as §1
The next assay relates to SNU387. The conditions noted are these: Homo sapiens, SNU-387, 144 h; SNU387 liver cancer cell line; 6 days. An outline of the steps:
as §1

The subject of the next assay is NCl-H1703. The conditions noted are these: 144 h; NCl-H1703 (lung cancer cells); 6 days. The method, boiled down: as §1
A further assay has as its system SNU449. Conditions: Homo sapiens, SNU-449, 144 h; SNU449 liver cancer cell line; 6 days. An outline of the steps: as §1
Another assay has as its system SNU475. Conditions: Homo sapiens, SNU-475, 144 h; SNU475 liver cancer cell line; 6 days. An outline of the steps: as §1
The subject of a further assay is SK-HEP-1. Conditions: Homo sapiens, SK-HEP1, 144 h; SK-HEP-1 liver cancer cell line; 6 days. An outline of the steps:
as §1

A further assay relates to HUH6. The conditions noted are these: Homo sapiens, HuH-6, 144 h; HUH6 liver cancer cell line; 6 days. The method, boiled down:
as §1

The next assay deals with SNU761. Conditions: 144 h; SNU761 liver cancer cell line; 6 days. The method, boiled down: as §1
In a further assay the test system is JHH1. The conditions noted are these: 144 h; JHH1 liver cancer cell line; 6 days. An outline of the steps: as §1
The next assay relates to HuTu80. The conditions noted are these: Homo sapiens, 144 h; HuTu80 tumor cell line; 6 days. An outline of the steps:
as §1

The subject of a further assay is SNU739. Conditions: SNU-739, 144 h; SNU739 liver cancer cell line; 6 days. The method, boiled down: as §1
The next assay concerns JHH2. The conditions noted are these: JHH-2, 144 h; JHH2 liver cancer cell line; 6 days. The method, boiled down: as §1
A further assay relates to KM12. The conditions noted are these: Homo sapiens, 144 h; KM12 tumor cell line; 6 days. An outline of the steps:
as §1

For `Cc1ccc(F)c(NC(=O)Nc2ccc(-c3cccc4c3c(N)nn4C(=O)CCCCCNC(=O)C[C@H](N)C(=O)N[C@@H](CCC(=O)N[C@@H](CCC(=O)N[C@@H](CCC(=O)N[C@@H](CCC(=O)N[C@@H](CCC(=O)N[C@@H](CCC(=O)N[C@@H](CCC(=O)N[C@@H](CCC(=O)N[C@@H](CCC(=O)O)C(=O)O)C(=O)O)C(=O)O)C(=O)O)C(=O)O)C(=O)O)C(=O)O)C(=O)O)C(=O)O)cc2)c1` [Compound 6], the IC50 in the assay on SNU398 was more than 100 µM; in the assay with 22RV1 it was more than 100 µM; in the assay with NCl-H526 it was more than 100 µM; in the assay on KASUMI-1 it was 4.94 µM; in the assay on NCl-H661, more than 100 µM; in the assay with HT55, more than 100 µM. Also, the IC50 was more than 100 µM with JHH6; more than 100 µM in the assay on SNU182; more than 100 µM in the assay on HCCLM3; more than 100 µM in the assay with HT1080; 82.1 µM in the assay with HLF; more than 100 µM with SNU387. The IC50 in the assay with NCl-H1703 was 7.16 µM; in the assay on SNU449, more than 100 µM; in the assay on SNU475, more than 100 µM; in the assay on SK-HEP-1, more than 100 µM; in the assay with HUH6, 88.7 µM; in the assay with SNU761, more than 100 µM. Moreover, the IC50 in the assay on JHH1 is more than 100 µM; with HuTu80 it was 61 µM; in the assay with SNU739, more than 100 µM; in the assay with JHH2, more than 100 µM; with KM12, 70 µM.
For the molecule `Cc1ccc(F)c(NC(=O)Nc2ccc(-c3cccc4c3c(N)nn4C(=O)CCCCCCCCCCCNC(=O)C[C@H](N)C(=O)N[C@@H](CCC(=O)O)C(=O)O)cc2)c1` [Compound 7], the IC50 is 18.1 µM in the assay with SNU398; more than 100 µM with 22RV1; more than 100 µM in the assay on NCl-H526; 0.096 µM in the assay on KASUMI-1; 86.7 µM in the assay with NCl-H661; more than 100 µM in the assay with HT55. Moreover, the IC50 in the assay with JHH6 was 23.6 µM; in the assay on SNU182 it was more than 100 µM; in the assay on HCCLM3, more than 100 µM; in the assay with HT1080 it was more than 100 µM; with HLF, 24.4 µM; with SNU387 it was more than 100 µM. Also, the IC50 in the assay on NCl-H1703 was 0.18 µM; with SNU449, 31.6 µM; in the assay on SNU475, 40.7 µM; in the assay on SK-HEP-1 it was 29.2 µM; with HUH6 it was more than 100 µM; in the assay with SNU761, more than 100 µM. Further, the IC50 with JHH1 is more than 100 µM; with HuTu80, 21.1 µM; with SNU739, 37.4 µM; with JHH2 it was more than 100 µM; in the assay with KM12, 7.72 µM.
As for `Cc1ccc(F)c(NC(=O)Nc2ccc(-c3cccc4c3c(N)nn4C(=O)CCCCCCCCCCCNC(=O)C[C@H](N)C(=O)O)cc2)c1` [Compound 12], the IC50 is more than 30 µM with SNU398; more than 30 µM with 22RV1; more than 30 µM in the assay with NCl-H526; 0.05 µM with KASUMI-1; more than 30 µM with NCl-H661; more than 30 µM in the assay with HT55. In addition, the IC50 was more than 30 µM with JHH6; 19.5 µM with SNU182; more than 30 µM in the assay on HCCLM3; more than 30 µM in the assay on HT1080; more than 30 µM in the assay on HLF; 30.3 µM in the assay with SNU387. The IC50 was 0.05 µM in the assay on NCl-H1703; more than 30 µM in the assay with SNU449; more than 30 µM in the assay on SNU475; more than 30 µM in the assay on SK-HEP-1; 10.6 µM in the assay with HUH6; more than 30 µM in the assay on SNU761. Moreover, the IC50 with JHH1, with HuTu80, in the assay with SNU739, with JHH2 and in the assay on KM12 was more than 30 µM each time.
As to `Cc1ccc(F)c(NC(=O)Nc2ccc(-c3cccc4c3c(N)nn4C(=O)C[C@H](N)C(=O)N[C@@H](CCC(=O)N[C@@H](CCC(=O)N[C@@H](CCC(=O)N[C@@H](CCC(=O)O)C(=O)O)C(=O)O)C(=O)O)C(=O)O)cc2)c1` [Compound 2], the IC50 in the assay on SNU398 amounted to 6.37 µM; in the assay on 22RV1, 7.81 µM; in the assay on NCl-H526, 8.94 µM; with KASUMI-1 it was 0.12 µM; in the assay with NCl-H661 it was 11.3 µM; with HT55 it was 20.4 µM. The IC50 in the assay on JHH6 came to 4.38 µM; with SNU182, 32.1 µM; with HCCLM3, 15.8 µM; with HT1080 it was 19.3 µM; in the assay with HLF it was 4.94 µM; in the assay with SNU387, 19.4 µM. The IC50 stood at 0.063 µM in the assay on NCl-H1703; 8.39 µM with SNU449; 6.37 µM in the assay on SNU475; 9.25 µM in the assay with SK-HEP-1; 0.82 µM in the assay with HUH6; 15.3 µM in the assay with SNU761. Also, the IC50 in the assay with JHH1 came to 11.3 µM; in the assay with HuTu80, 5.62 µM; in the assay with SNU739, 6.33 µM; in the assay on JHH2 it was 36 µM; with KM12 it was 2.94 µM.

Broadly, the IC50 is the point on the concentration scale where inhibition reaches its midpoint. High values mean lower potency, low ones higher potency.
